Values quoted from earlier work, collected in patent US20240016760A1, “Multivitamin” (priority 2022, published 2024).

Assays:
CFTR protein = conditions: patients with CF
CFTR Chloride channels = CFTR Chloride channels (Homo sapiens, UniProt P13569); conditions: increase from zero, at the appropriate concentrations
Sequence of CFTR Chloride channels (P13569 whole entry): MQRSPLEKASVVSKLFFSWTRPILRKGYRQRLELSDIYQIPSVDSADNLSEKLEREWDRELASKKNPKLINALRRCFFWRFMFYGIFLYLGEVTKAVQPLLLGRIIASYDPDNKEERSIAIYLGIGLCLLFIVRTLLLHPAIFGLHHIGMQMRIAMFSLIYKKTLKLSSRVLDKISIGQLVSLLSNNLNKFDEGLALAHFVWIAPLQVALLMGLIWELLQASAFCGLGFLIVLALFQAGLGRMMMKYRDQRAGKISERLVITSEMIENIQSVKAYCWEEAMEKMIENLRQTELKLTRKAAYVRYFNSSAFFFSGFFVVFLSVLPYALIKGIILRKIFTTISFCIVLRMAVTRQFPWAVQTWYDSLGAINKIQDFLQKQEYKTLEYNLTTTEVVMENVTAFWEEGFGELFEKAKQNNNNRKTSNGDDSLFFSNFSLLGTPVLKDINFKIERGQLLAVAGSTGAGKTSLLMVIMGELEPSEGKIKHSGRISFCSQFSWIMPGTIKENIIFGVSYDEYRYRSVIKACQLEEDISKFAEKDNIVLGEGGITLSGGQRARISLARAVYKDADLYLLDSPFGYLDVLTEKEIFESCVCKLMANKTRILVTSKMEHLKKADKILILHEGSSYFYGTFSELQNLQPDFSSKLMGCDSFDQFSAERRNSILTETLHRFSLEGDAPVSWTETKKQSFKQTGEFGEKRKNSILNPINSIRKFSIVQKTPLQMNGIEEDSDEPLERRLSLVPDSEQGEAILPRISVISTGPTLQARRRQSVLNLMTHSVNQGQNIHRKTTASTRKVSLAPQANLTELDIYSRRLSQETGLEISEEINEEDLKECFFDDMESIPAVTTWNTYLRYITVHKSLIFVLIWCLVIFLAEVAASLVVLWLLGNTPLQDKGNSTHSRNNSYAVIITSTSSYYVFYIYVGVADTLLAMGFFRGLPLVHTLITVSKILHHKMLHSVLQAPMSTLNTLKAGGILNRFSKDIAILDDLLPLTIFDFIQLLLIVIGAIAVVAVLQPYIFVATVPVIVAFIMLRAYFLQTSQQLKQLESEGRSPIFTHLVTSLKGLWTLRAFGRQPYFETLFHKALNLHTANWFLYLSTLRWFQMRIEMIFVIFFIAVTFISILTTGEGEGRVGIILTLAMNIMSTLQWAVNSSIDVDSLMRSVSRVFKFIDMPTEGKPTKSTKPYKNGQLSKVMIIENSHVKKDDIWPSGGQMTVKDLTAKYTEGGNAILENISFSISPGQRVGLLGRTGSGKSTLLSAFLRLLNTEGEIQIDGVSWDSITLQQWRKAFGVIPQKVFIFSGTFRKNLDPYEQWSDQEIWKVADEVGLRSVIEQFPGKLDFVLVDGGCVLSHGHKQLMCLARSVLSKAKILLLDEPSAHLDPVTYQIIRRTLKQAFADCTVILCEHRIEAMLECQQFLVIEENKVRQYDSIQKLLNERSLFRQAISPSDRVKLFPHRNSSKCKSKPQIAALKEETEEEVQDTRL

| average open probability of CFTR Chloride channels (CFTR Chloride channels) | SMILES | average increase in lung function (as measured by FEV1) (CFTR protein) [%] |
| --- | --- | --- |
|  | CC(C)(C)c1cc(C(C)(C)C)c(NC(=O)c2c[nH]c3ccccc3c2=O)cc1O [Ivacaftor, ivacaftor] | ~2 |
| 0.21 (+0.08) | O=C1O[C@H]([C@@H](O)CO)C(O)=C1O [vitamin C] |  |
